Reference: US20210007350A1, “USE OF A FUNGICIDAL COMPOSITION AS TREATMENT FOR POWDERY MILDEW” (DESARROLLO AGRICOLA Y MINERO, S.A., priority 2017, published 2021)

Test system: powdery mildew (Sphaerotheca macularis)
Assay: Control of powdery mildew in greenhouse strawberry cultivation (field efficacy trial)
Format: in vivo
Settings: Myclobutanil 20 g/l, dose 30 ml/hl
Experimental: To reflect the efficacy of the invention presented in this description, comparative studies were performed in commercial conditions. Thus, commercial application of the present fungicidal composition is carried out by ground spraying with manual sprayers, motor pumps, or other similar means. The invention is further characterised by a specific use with a product application dose of between 0.05 l/hl and 0.5 l/hl, and preferably between 0.2 l/hl and 0.3 l/hl of the composition described herein.
The conditions of the application solution will be those normally used for the crops described. The following examples show the spraying case.
Example 1: Application of the Fungicidal Composition for the Control of Powdery Mildew (Sphaerotheca macularis) in Strawberries
The aim of the protocol was to evaluate the effect of the fungicidal composition applied in different doses for the control of powdery mildew (Sphaerotheca macularis) in greenhouse strawberry cultivation and compare its efficacy against that of a standard chemical phytosanitary product such as myclobutanil. Location: Almeria (Spain). Variety: Benicia.
Untreated control specimen
Myclobutanil 20 g/l, dose 30 ml/hl
Fungicidal composition, dose 0.2l/hl
Fungicidal composition, dose 0.3l/hl
Number of applications: 4
Use of solution: 1000 l/ha.
Parameters evaluated: Efficacy.
Efficacy data were taken at the following times.
T0: 0, before first application.
T1: 10 days after the first application and just before the second application.
T2: 9 days after the second application and just before the third application.
T3: 9 days after the third application and just before the fourth application
T4: 7 days after the fourth application.

With `CCCCC(C#N)(Cn1cncn1)c1ccc(Cl)cc1` (centres unmarked) [Myclobutanil, myclobutanil] the “efficacy % (T0)” value (T0: before first application, strawberry var. Benicia, greenhouse) was 0%, the “efficacy % (T1)” value (T1: 10 days after the first application) was 92.4% and the “efficacy % (T2)” value (T2: 9 days after the second application) was 97.0%. For the same compound, the “efficacy % (T3)” value (T3: 9 days after the third application) was 95.8% and the “efficacy % (T4)” value (T4: 7 days after the fourth application) was 98.3%.
